Legend:
[1] = molecular target: Cystic fibrosis transmembrane conductance regulator (Homo sapiens, UniProt P13569, F508DEL); experiment: Potentiation of CFTR F508del mutant activity (unknown origin)
[2] = molecular target: Cystic fibrosis transmembrane conductance regulator (Homo sapiens, UniProt P13569, W1282X); experiment: Potentiation of CFTR W1282X mutant (unknown origin) expressed in rat FRT cells; format: cell-based
[3] = molecular target: Cystic fibrosis transmembrane conductance regulator (Rattus norvegicus, UniProt P34158, F508DEL); experiment: Potentiation of CFTR F508del mutant in rat FRT cells assessed as increase in iodide influx in presence of forskolin; format: cell-based
[4] = tested on: Cystic fibrosis transmembrane conductance regulator (Rattus norvegicus), P34158 [UNDEFINED MUTATION]; experiment: Potency index, ratio of genistein EC50 to test compound EC50 for potentiation of CFTR F508del mutant in rat FRT cells assessed as increase in iodide influx in presence of forskolin; format: cell-based
[5] = tested on: Cystic fibrosis transmembrane conductance regulator (Homo sapiens), P13569 [F508del]; experiment: Potentiation of CD4-HRP tagged CFTR F508del mutant NBD1 (unknown origin) expressed in MDCK cells assessed as increase in chloride current by measuring fold increase in luminescence signal incubated for 24 hrs relative to control; format: cell-based; conditions: filed as activator
[6] = tested on: Cystic fibrosis transmembrane conductance regulator (Homo sapiens), P13569 [F508del]; experiment: Potentiation of CFTR F508del mutant (unknown origin) expressed in rat FRT cells assessed as increase in chloride current by measuring maximal effect at 30 uM in presence of forskolin relative to control; format: cell-based; conditions: filed as activator

Chain of Cystic fibrosis transmembrane conductance regulator (Homo sapiens), P13569 [F508del] (P13569 as listed by the source): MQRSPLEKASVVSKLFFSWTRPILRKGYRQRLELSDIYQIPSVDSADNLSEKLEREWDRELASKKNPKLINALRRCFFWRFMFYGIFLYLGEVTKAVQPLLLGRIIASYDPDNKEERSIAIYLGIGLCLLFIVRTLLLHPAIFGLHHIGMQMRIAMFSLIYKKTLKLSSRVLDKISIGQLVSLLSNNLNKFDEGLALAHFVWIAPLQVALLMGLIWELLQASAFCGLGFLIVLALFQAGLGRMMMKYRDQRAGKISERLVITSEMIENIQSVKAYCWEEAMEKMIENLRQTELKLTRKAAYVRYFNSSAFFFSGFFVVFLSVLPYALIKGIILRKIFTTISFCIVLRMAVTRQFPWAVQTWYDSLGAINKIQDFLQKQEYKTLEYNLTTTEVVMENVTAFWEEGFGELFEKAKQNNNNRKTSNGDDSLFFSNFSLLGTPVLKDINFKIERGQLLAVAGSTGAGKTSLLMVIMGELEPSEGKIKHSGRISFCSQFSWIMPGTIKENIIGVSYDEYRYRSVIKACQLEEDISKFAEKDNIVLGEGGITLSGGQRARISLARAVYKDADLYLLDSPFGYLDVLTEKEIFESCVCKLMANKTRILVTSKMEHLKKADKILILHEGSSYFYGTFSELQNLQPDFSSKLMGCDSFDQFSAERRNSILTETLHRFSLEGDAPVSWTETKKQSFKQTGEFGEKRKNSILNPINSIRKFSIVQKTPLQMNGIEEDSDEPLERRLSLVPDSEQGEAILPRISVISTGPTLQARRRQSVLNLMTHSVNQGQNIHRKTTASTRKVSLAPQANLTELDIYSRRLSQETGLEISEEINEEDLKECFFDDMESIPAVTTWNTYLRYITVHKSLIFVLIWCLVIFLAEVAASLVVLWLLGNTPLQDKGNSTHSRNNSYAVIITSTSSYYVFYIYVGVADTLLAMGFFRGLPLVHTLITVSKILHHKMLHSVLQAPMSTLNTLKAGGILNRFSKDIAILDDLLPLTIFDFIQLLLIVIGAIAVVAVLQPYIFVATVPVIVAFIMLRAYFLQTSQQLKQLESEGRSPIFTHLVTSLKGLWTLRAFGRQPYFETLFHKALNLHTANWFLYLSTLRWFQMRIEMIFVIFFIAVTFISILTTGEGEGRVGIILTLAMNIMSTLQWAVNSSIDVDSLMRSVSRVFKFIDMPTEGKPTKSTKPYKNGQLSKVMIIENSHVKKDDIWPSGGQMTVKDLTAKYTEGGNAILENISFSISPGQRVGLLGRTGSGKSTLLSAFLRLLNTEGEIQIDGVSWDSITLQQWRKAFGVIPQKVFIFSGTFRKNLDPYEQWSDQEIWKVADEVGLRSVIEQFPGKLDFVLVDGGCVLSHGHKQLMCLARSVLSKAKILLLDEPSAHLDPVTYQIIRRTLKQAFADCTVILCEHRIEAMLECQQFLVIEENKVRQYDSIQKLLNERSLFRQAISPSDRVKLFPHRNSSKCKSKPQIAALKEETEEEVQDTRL
Chain of Cystic fibrosis transmembrane conductance regulator (Homo sapiens, UniProt P13569, F508DEL) (P13569 as listed by the source): as above
Chain of Cystic fibrosis transmembrane conductance regulator (Rattus norvegicus), P34158 [UNDEFINED MUTATION] (P34158 whole entry, looked up, stated change not applied): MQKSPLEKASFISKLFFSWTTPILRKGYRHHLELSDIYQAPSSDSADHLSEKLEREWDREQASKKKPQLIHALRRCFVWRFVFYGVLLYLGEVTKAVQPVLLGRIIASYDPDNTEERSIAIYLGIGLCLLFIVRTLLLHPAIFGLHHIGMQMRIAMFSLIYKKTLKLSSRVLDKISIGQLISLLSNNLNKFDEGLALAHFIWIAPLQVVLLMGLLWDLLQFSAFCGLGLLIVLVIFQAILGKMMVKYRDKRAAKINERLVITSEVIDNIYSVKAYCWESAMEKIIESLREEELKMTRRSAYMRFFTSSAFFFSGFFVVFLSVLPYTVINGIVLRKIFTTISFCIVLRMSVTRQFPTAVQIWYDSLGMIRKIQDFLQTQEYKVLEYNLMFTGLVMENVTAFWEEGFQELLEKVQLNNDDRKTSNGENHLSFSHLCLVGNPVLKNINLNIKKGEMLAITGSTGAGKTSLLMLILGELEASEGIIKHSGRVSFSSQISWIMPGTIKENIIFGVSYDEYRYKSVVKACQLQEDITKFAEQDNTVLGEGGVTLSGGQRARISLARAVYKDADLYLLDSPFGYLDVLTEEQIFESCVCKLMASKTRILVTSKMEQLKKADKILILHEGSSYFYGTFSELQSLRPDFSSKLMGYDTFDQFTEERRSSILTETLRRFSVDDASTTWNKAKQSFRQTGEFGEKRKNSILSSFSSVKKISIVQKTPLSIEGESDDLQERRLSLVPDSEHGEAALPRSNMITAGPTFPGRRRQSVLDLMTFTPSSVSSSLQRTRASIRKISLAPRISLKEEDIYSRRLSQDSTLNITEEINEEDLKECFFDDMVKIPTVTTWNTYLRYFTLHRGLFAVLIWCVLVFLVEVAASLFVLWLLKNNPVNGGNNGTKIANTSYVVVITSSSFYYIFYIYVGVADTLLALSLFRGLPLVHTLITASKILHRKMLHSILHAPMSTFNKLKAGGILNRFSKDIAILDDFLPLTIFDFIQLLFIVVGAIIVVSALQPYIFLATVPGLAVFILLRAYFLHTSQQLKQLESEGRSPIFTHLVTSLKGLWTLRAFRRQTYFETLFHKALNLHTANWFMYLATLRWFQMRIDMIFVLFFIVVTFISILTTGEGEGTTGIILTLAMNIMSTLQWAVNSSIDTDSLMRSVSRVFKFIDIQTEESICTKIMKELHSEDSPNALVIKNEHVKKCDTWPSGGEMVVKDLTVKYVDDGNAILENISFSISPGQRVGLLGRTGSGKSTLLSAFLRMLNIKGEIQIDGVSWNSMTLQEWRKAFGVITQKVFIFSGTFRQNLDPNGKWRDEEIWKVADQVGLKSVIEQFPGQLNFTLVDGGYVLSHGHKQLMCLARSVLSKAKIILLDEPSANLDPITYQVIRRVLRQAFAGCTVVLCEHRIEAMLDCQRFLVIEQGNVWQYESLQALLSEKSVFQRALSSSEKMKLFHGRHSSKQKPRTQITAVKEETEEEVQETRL
Chain of Cystic fibrosis transmembrane conductance regulator (Rattus norvegicus, UniProt P34158, F508DEL) (P34158 whole entry F508del, looked up): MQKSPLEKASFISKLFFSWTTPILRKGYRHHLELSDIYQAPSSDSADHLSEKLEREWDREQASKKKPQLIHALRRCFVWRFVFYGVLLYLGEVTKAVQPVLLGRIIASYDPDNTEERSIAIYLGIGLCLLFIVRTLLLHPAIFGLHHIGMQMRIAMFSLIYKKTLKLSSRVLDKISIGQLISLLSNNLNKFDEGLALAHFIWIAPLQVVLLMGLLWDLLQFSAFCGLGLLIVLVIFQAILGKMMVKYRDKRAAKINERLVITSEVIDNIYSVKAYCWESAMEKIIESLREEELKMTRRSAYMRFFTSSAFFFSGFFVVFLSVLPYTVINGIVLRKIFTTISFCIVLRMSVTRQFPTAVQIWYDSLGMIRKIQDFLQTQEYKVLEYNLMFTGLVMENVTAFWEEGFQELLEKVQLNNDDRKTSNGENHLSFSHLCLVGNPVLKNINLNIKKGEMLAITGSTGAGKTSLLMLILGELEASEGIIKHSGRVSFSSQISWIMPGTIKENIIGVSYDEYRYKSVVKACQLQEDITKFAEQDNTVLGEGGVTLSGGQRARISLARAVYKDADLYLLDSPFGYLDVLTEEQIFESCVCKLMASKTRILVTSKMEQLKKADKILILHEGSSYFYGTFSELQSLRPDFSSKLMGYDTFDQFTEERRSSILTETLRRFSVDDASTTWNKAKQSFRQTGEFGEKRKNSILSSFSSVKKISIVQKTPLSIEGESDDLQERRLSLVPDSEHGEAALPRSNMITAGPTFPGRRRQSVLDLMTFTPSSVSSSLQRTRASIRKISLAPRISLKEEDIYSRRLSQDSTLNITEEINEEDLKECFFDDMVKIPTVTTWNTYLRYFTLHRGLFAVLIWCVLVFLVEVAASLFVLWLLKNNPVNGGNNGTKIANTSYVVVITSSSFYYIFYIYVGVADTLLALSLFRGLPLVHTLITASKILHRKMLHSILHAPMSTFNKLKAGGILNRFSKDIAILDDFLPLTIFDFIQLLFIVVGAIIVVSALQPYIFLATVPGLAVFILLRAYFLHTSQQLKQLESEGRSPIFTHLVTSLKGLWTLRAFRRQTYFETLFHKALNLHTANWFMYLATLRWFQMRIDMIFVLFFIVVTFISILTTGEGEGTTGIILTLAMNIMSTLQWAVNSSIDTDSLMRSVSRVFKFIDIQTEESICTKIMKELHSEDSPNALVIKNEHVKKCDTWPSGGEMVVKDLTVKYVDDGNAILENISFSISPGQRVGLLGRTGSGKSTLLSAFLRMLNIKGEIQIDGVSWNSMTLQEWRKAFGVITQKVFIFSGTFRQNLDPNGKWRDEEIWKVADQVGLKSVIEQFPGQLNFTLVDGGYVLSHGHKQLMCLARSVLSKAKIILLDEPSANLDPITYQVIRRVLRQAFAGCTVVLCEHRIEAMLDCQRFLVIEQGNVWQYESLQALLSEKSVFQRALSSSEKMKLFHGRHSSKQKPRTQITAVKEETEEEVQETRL

Row | Structure (SMILES) | EC50 [2] | fold change (FC) [5] | other results
1 | CN(C(=O)Cc1c[nH]c2ccccc12)[C@H](C(=O)Nc1ccc(F)cc1)c1ccccc1 |  |  | EC50 [1]: 0.09 µM
2 | CC(C)c1ccc(NC(=O)C(c2ccccc2)N(C)C(=O)Cc2c[nH]c3ccccc23)cc1 (stereo unspecified) |  |  | EC50 [3]: 0.07 µM; Ratio EC50 [4]: 100
3 | CN(C(=O)Cc1c[nH]c2ccccc12)[C@H](C(=O)Nc1ccc(-n2cc(CCCF)nn2)cc1)c1ccccc1 |  |  | EC50 [1]: 1.1 µM
4 | CCc1ccc(NS(=O)(=O)c2cn(Cc3ccccc3C#N)c3ncccc23)cc1 | 0.7 µM |  | 
5 | COc1ccc(CNC(=O)c2sc3ccc(Cl)cc3c2OC)c(OC)c1 |  |  | Activity [6]: 50%

Now from value to compound, other results behind:

Row | EC50 [2] | fold change (FC) [5] | Structure (SMILES) | other results
6 | 0.6 µM |  | CCc1ccc(NS(=O)(=O)c2cn(Cc3ccccn3)c3ncccc23)cc1 | 
7 | 1 µM |  | CCCCCn1cc(S(=O)(=O)Nc2ccc(CC)cc2)c2cccnc21 | 
8 |  | 1.7 | COc1cc(CNC(=O)c2sc3ccccc3c2OC)cc(OC)c1 | 
9 |  | 2 | COc1c(C(=O)NCc2ccc(F)cc2Cl)sc2ccccc12 | 
10 |  | 2.4 | COc1c(C(=O)NCc2ccccc2Br)sc2ccccc12 | 

From ChEMBL document CHEMBL5230114, “Current development of CFTR potentiators in the last decade” (Eur J Med Chem, 2020)
